Laboratory results: patent US20190388510A1, “GLUCAGON-T3 CONJUGATES” (priority 2016, published 2019)

Assays:
Assay type in all cases: in vivo, mouse
[1] = system: diet-induced obese (DIO) mice
Source text: For studies on lipid handling in wildtype mice (Western mice), male C57Bl/6j mice (Jackson Laboratories) were fed a atherogenic Western diet (Research Diets D12079B), which is a high-cholesterol diet (0.21% gm %) with 41% kcal from fat, 43% kcal from carbohydrates, and 17% kcal from protein. For studies on energy metabolism in obese mice (DIO mice), male C57Bl/6j mice (Jackson Laboratories) were fed a diabetogenic diet (Research Diets D12331), which is a high-sucrose diet with 58% kcal from fat 25.5% kcal from carbohydrates, and 16.4% kcal from protein. Both dietary challenges began at 8 weeks of age. HFHSD and HFHCD mice were single- or group-housed on a 12:12-h light-dark cycle at 22° C. with free access to food and water. Mice were maintained under these conditions for a minimum of 16 weeks before initiation of pharmacological studies and were between the ages of 6 months to 12 months old. All injections and tests were performed during the light cycle. Compounds were administered in a vehicle of 1% Tween-80 and 1% DMSO and were given by daily subcutaneous injections at the indicated doses at a volume of 5 μl per g body weight. Mice were randomized and evenly distributed to test groups according to body weight and body composition. If ex vivo molecular biology/histology/biochemistry analyses were performed, the entire group of mice for each treatment was analyzed and scored in a blinded fashion.
(§1) Compounds were administered by repeated subcutaneous injections in the middle of the light phase at the indicated doses with the indicated durations. Co-administration of compounds was administered by single formulated injections. Body weights and food intake were measured every day or every other day after the first injection. All studies with wild-type mice were performed with a group size of n=8 or greater using mice on a C57B16j background.
Whole-body composition (fat and lean mass) was measured using nuclear magnetic resonance technology (EchoMRI).
(§2) Energy intake, energy expenditure, respiratory exchange ratio, and home-cage activity were assessed using a combined indirect calorimetry system (TSE Systems). O2 consumption and CO2 production were measured every 10 min for a total of up to 120 h (after 24 h of adaptation) to determine the respiratory quotient and energy expenditure after an initial treatment regimen. Food intake was determined continuously for the same time as the indirect calorimetry assessments by integration of scales into the sealed cage environment. Home-cage locomotor activity was determined using a multidimensional infrared light beam system with beams scanning the bottom and top levels of the cage, and activity being expressed as beam breaks.
Blood was collected at the indicated times from tail veins or after euthanasia using EDTA-coated microvette tubes (Sarstedt), immediately chilled on ice, centrifuged at 5,000 g and 4° C., and plasma was stored at −80° C. For […] (FPLC) of cholesterol distribution in different lipoprotein fractions, fresh plasma from each treatment group was pooled (n=6-8) and ran over two Superose 6 HR columns in tandem. Cholesterol levels in the collected fractions were determined by colorimetric assay. Plasma insulin and T3 were quantified by an ELISA assay (Ultrasenstive Mouse Insulin ELISA and Rodent T3 ELISA; Alpco). Plasma FGF21 was quantified by an ELISA assay (Mouse FGF21 ELISA; Millipore). Plasma cholesterol, extracted hepatic cholesterol, triglycerides, ALT, and AST were measured using enzymatic assay kits (Thermo Fisher). Plasma creatinine and blood urea nitrogen were measured using enzymatic assay kits (Abcam). Plasma free fatty acids were measured using enzymatic assay kits (Wako). All assays were performed according to the manufacturers' instructions. […]

DIO mice [2] = experiment: Glycemic control in DIO mice; conditions: i.p. pyruvate 1.5 g kg-1
Description: as §1
For assessment of glucose, pyruvate, and insulin tolerance during chronic treatment, the challenge tests were performed at least 24 hours after the last administration of compounds. […]
as §2, with “breaks. […]” for “breaks.”

DIO mice [3] = experiment: Cardiac function and histology in DIO mice (echocardiography)
Description: After chronic treatment, HFHCD-fed or HFHSD-fed C57B16/j male mice (age) were sacrificed with CO2, body weight as well as heart weights and tibia length was taken during necropsy. Livers and whole hearts were embedded in paraffin using a vacuum infiltration processor TissueTEK VIP (Sakura). 3 μm thick slides were cut using a HMS35 rotatory microtome (Zeiss) and H & E staining was performed. For H & E staining, rehydration was done in a decreasing ethanol series, rinsing with tapwater, 2 min Mayers acid Hemalum, bluing in tapwater followed by lmin EosinY (both BioOptica). Dehydration was performed in increasing ethanol series, mounting with Pertex® (Medite GmbH) and coverslips (CarlRoth Chemicals). The slides were evaluated independently using a brightfield microscope (Axioplan, Zeiss). Photos were taken using the Hamamatsu-Nanozoomer HT2.0 in 1.25×, 5×. 20× and 40× magnification. The hepatic steatosis score is defined as the unweighted sum of the three individual scores for steatosis, lobular inflammation and ballooning degeneration. Steatosis is graded by the presence of fat vacuoles in liver cells according to the percentage of affected tissue (0: <5%; 1: 5-33%; 2: 33-66%; 3: >66%). Lobular inflammation is scored by overall assessment of inflammatory foci per 200× field (0: no foci; 1: <2 foci; 2: 2-4 foci; 3: >4 foci). The individual score for ballooning degeneration ranges from 0 (none), 1 (few cells) to 2 (many cells). Total scores range from 0 to 8 with scores <2 considered non-steatosis, 3 considered as borderline steatosis, 4-5 considered onset of steatosis, and >6 considered steatosis. Different to liver and heart, inguinal fat pad samples were embedded in paraffin using Leica embedding machine (EG1150 H) and cut in 5 μm sections using Leica Microtome (RM2255) to perform H&E staining. Samples were stained with hematoxyline for 4 minutes and eosinY for 2 minutes and fixed with Roti®-Histokitt (Carl Roth) before analysing them independently using Microscope Scope A.1 (Zeiss).
For transthoracic echocardiography, a Vevo2100 Imaging System (VisualSonics Inc., Toronto Canada) with a 30 MHz probe was used. All echocardiograms were performed on conscious animals to prevent anesthesia-related impairment of cardiac function as reported previously. Briefly, echocardiograms were obtained in parasternal long and short axis views. For accurate linear measurements of LV internal dimensions (LVID) and […] (LVPW) or septal (IVS) wall thicknesses, M-mode images of the heart in parasternal short-axis view at the level of the papillary muscle were acquired. Qualitative and quantitative measurements were made offline using analytical software (VisualSonics Inc.). Fractional shortening (FS) was calculated as FS %=[(LVIDd−LVIDs)/LVIDd]×100. Ejection fraction (EF) was calculated as EF %=100*((LVvolD−LVvolS)/LVvolD) with LVvol=((7.0/(2.4+LVID)*LVID^3). The corrected LV mass (LV MassCor) was calculated as LV MassCor=0.8(1.053*((LVIDd+LVPWd+IVSd)^3−LVIDd^3)). Heart rate and respiration rate were determined from M-mode tracings, using 3 consecutive intervals.
Gene expression profiling in the liver, iWAT, eWAT, BAT, and heart were performed following treatment of mice according to the treatment paradigms explained in the figure legends for each specific analsysis. For tissue collection, mice were fasted for 4 h and treated with compounds 2 h prior to tissue collection. Gene expression was profiled with quantitative real-time RT-PCR using either TaqMan single probes or with specifically-designed TaqMan low-density array cards. The relative expression of the selected genes was normalized to the reference gene hypoxanthine-guanine phosphoribosyltransferase (Hprt).

Structure (SMILES): N[C@@H](Cc1cc(I)c(Oc2ccc(O)c(I)c2)c(I)c1)C(=O)O [T3, 3,5,3′-triiodothryonine]
- home cage (ambulatory) activity ([1]; DIO mice on HFHSD): significantly increased
- food intake ([1]; DIO mice on HFHSD, 7 days): increased
- body weight lowering ([1]; DIO mice on HFHSD, equimolar doses, 100 nmol kg-1 daily, 7 days): Neither glucagon nor T3 appreciably lowered body weight
- whole-body energy expenditure ([1]; DIO mice on HFHSD, indirect calorimetry): substantially increased
- circulating levels of T3 ([1]; mouse, in vivo): resulted in an increase
- rectal temperature ([1]; mouse, in vivo): increased rectal temperature
- pyruvate tolerance (hepatic glucose output) (DIO mice [2]): substantially improved
- heart histology: cell death (DIO mice [3]; histological profiling of the hearts): marked cell death was detectable
- heart histology: thyrotoxic cardiomyopathy (DIO mice [3]; mouse, in vivo): marked features of thyrotoxic cardiomyopathy
- whole heart expression of T3-sensitive genes (Dio2, Ucp2) (DIO mice [3]; mouse, in vivo): directly increased
- whole heart expression of hypertrophic gene markers (Nppa, Nppb) (DIO mice [3]; mouse, in vivo): directly increased
